Assay results as given in patent US9469645B2, “Compounds and compositions for the treatment of parasitic diseases” (Novartis AG, priority 2009, dated 2016).
Like-named read-outs stand apart in the source and are kept apart here.

What was measured:
3D7 P. falciparum strain = test: parasite proliferation assay in infected red blood cells (SYBR Green I); type: cell-based, Plasmodium falciparum; details: 3D7 strain, read-out: EC50 3D7 strain
Procedure, shortened: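 P. falciparum 3D7 grown in O+ human erythrocytes to 3–8% parasitemia and exposed to compounds. Proliferation read as the increase in parasite DNA. Detection used SYBR Green I in saponin/triton-X/EDTA lysis buffer, with overnight lysis at room temperature.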

W2 strain = test: parasite proliferation assay in infected red blood cells (SYBR Green I), W2 strain; type: cell-based, Plasmodium falciparum
From the text: Compounds of the invention can be assayed to measure their capacity to inhibit proliferation of parasitemia in infected red blood cells. The proliferation is quantified by the addition of SYBR Green I (INVITROGEN)® dye which has a high affinity for double stranded DNA.

[1] = Plasmodium falciparum, 3D7, Erythrocyte
[2] = Plasmodium falciparum, Erythrocyte

## Cc1ccc(Nc2c(-c3ccc(F)cc3)nc3n2CCN(C(=O)[C@@](C)(N)Cc2ccc(F)cc2)C3)cc1 [Compound 502]
3D7 P. falciparum strain; [1]
  EC50: 1390 nM
W2 strain; [2]
  EC50: 1370 nM

## N[C@@H](CC1CCC1)C(=O)N1CCn2c(nc(-c3ccc(F)cc3)c2Nc2ccc(F)c(F)c2)C1 [Compound 429]
3D7 P. falciparum strain; [1]
  EC50: 20 nM
W2 strain; [2]
  EC50: 36 nM

## Cc1ccc(Nc2c(-c3ccc(F)cc3)nc3n2CC(C)(C)N(C(=O)CN)C3)cc1 [Compound 573]
3D7 P. falciparum strain; [1]
  EC50: 40 nM
W2 strain; [2]
  EC50: 55 nM

## CC(C)(N)C(=O)N1CCn2c(nc(-c3ccc(F)cc3)c2Nc2ccc(C#N)c(Cl)c2)C1(C)C [Compound 591]
3D7 P. falciparum strain; [1]
  EC50: 60 nM
W2 strain; [2]
  EC50: 46 nM

## CC1(C)c2nc(-c3ccc(F)cc3)c(Nc3cccc(NS(C)(=O)=O)c3)n2CCN1C(=O)CN [Compound 552]
3D7 P. falciparum strain; [1]
  EC50: 2520 nM
W2 strain; [2]
  EC50: 4480 nM

## C[C@H]1NC(=O)Cn2c1nc(-c1ccc(F)cc1)c2Nc1ccc(Cl)cc1 [Compound 565]
3D7 P. falciparum strain; [1]
  EC50: 70 nM
W2 strain; [2]
  EC50: 105 nM

## CC1(C)NC(=O)Cn2c1nc(-c1ccc(F)cc1)c2Nc1ccc(F)c(Cl)c1 [Compound 513]
3D7 P. falciparum strain; [1]
  EC50: 170 nM
W2 strain; [2]
  EC50: 195 nM

## Cc1ccc(Nc2c(-c3ccc(F)cc3)nc3n2CCN(C(=O)[C@@H](N)CC(C)C)C3)cc1 [Compound 480]
3D7 P. falciparum strain; [1]
  EC50: 30 nM
W2 strain; [2]
  EC50: 22 nM

## CN1CCN(c2ccc(Nc3c(-c4ccc(F)cc4)nc4n3CCNC4(C)C)cc2)CC1 [Compound 572]
3D7 P. falciparum strain; [1]
  EC50: 11200 nM
W2 strain; [2]
  EC50: 8730 nM

## N[C@H](C(=O)N1CCn2c(nc(-c3ccc(F)cc3)c2Nc2ccc(F)c(F)c2)C1)C1CC1 [Compound 437]
3D7 P. falciparum strain; [1]
  EC50: 20 nM
W2 strain; [2]
  EC50: 28 nM

## CC1(C)NCCn2c1nc(-c1ccc(F)cc1)c2Nc1ccc(Cl)c(F)c1 [Compound 420]
3D7 P. falciparum strain; [1]
  EC50: 20 nM
W2 strain; [2]
  EC50: 28 nM

## CC(C)[C@H]1c2nc(-c3ccc(F)cc3)c(Nc3ccc(Cl)c(F)c3)n2CCN1C(=O)CN [Compound 595]
3D7 P. falciparum strain; [1]
  EC50: 340 nM
W2 strain; [2]
  EC50: 485 nM

## Cc1ccc(Nc2c(-c3cccc(F)c3)nc3n2C(C)(C)CN(C(=O)CN)C3)cc1 [Compound 594]
3D7 P. falciparum strain; [1]
  EC50: 20 nM
W2 strain; [2]
  EC50: 32 nM

## N[C@H](C(=O)N1CCn2c(nc(-c3ccc(F)cc3)c2Nc2ccc(Cl)cc2)C1)C1CC1 [Compound 450]
3D7 P. falciparum strain; [1]
  EC50: 20 nM
W2 strain; [2]
  EC50: 15 nM

## CC1(C)NC(=O)Cn2c1nc(-c1ccc(F)cc1)c2Nc1cccc(F)c1 [Compound 501]
3D7 P. falciparum strain; [1]
  EC50: 400 nM
W2 strain; [2]
  EC50: 305 nM

## N[C@@H](Cc1cscn1)C(=O)N1CCn2c(nc(-c3ccc(F)cc3)c2Nc2ccc(Cl)cc2)C1 [Compound 461]
3D7 P. falciparum strain; [1]
  EC50: 30 nM
W2 strain; [2]
  EC50: 22 nM

## CC(C)[C@H](N)C(=O)N1CCn2c(nc(-c3ccc(F)cc3)c2Nc2ccc(Cl)cc2)C1 [Compound 449]
3D7 P. falciparum strain; [1]
  EC50: 30 nM
W2 strain; [2]
  EC50: 26 nM

## Cc1ccc(Nc2c(-c3ccc(F)cc3)nc3n2CCNC3(C)C)cc1F [Compound 541]
3D7 P. falciparum strain; [1]
  EC50: 10 nM
W2 strain; [2]
  EC50: 10 nM

## Cc1ccc(Nc2c(-c3ccc(F)cc3)nc3n2CCN(C(=O)C(C)(N)CC(C)C)C3)cc1 (stereo not shown) [Compound 503]
3D7 P. falciparum strain; [1]
  EC50: 120 nM
W2 strain; [2]
  EC50: 95 nM

## Cc1ccc(Nc2c(-c3cc(F)ccc3F)nc3n2CCN(C(=O)C(C)(C)N)C3)cc1 [Compound 408]
3D7 P. falciparum strain; [1]
  EC50: 930 nM
W2 strain; [2]
  EC50: 908 nM

## Cc1cc(Nc2c(-c3ccc(F)cc3)nc3n2CCN(C(=O)C(C)(C)N)C3(C)C)ccc1F [Compound 588]
3D7 P. falciparum strain; [1]
  EC50: 10 nM
W2 strain; [2]
  EC50: 4 nM

## CC1(C)NC(=O)Cn2c1nc(-c1ccc(F)cc1)c2Nc1cccc(C(F)(F)F)c1 [Compound 500]
3D7 P. falciparum strain; [1]
  EC50: 1560 nM
W2 strain; [2]
  EC50: 1100 nM

## C[C@H](N)C(=O)N1CCn2c(nc(-c3ccc(F)cc3)c2Nc2ccc(Cl)cc2)C1 [Compound 448]
3D7 P. falciparum strain; [1]
  EC50: 20 nM
W2 strain; [2]
  EC50: 22 nM

## CC1(C)c2nc(-c3ccc(F)cc3)c(Nc3cccc(C(F)(F)F)c3)n2CCN1C(=O)C(F)(F)F [Compound 528]
3D7 P. falciparum strain; [1]
  EC50: 150 nM
W2 strain; [2]
  EC50: 121 nM

## CC(C)[C@H]1NC(=O)Cn2c1nc(-c1ccc(F)cc1)c2Nc1ccc(Cl)c(F)c1 [Compound 550]
3D7 P. falciparum strain; [1]
  EC50: 2560 nM
W2 strain; [2]
  EC50: 3600 nM

## CC[C@H](C)[C@H](N)C(=O)N1CCn2c(nc(-c3ccc(F)cc3)c2Nc2ccc(C)cc2)C1 [Compound 481]
3D7 P. falciparum strain; [1]
  EC50: 20 nM
W2 strain; [2]
  EC50: 14 nM

## CC1(C)NC(=O)Cn2c1nc(-c1ccc(F)cc1)c2Nc1ccc(C#N)c(Cl)c1 [Compound 548]
3D7 P. falciparum strain; [1]
  EC50: 2630 nM
W2 strain; [2]
  EC50: 5550 nM

## CC(C)(N)C(=O)N1CCn2c(nc(-c3ccc(F)cc3)c2Nc2ccc(Cl)cc2)C1(C)C [Compound 584]
3D7 P. falciparum strain; [1]
  EC50: 20 nM
W2 strain; [2]
  EC50: 21 nM

## Cc1ccc(Nc2c(-c3ccc(F)c(F)c3)nc3n2CCN(C(=O)[C@H](C)N)C3)cc1 [Compound 406]
3D7 P. falciparum strain; [1]
  EC50: 60 nM
W2 strain; [2]
  EC50: 40 nM

## CN1CCN(c2ccc(Nc3c(-c4ccc(F)cc4)nc4n3CC(=O)NC4(C)C)cc2)CC1 [Compound 568]
3D7 P. falciparum strain; [1]
  EC50: > 8040 nM
W2 strain; [2]
  EC50: > 11300 nM

## CC1(C)NC(=O)Cn2c1nc(-c1ccc(F)cc1)c2Nc1cc(F)c(F)c(F)c1 [Compound 543]
3D7 P. falciparum strain; [1]
  EC50: 170 nM
W2 strain; [2]
  EC50: 305 nM

## Fc1ccc(-c2nc3n(c2Nc2ccc(Cl)c(Cl)c2)CCNC3)cc1 [Compound 411]
3D7 P. falciparum strain; [1]
  EC50: 140 nM
W2 strain; [2]
  EC50: 106 nM

## N[C@H](C(=O)N1CCn2c(nc(-c3ccc(F)cc3)c2Nc2ccc(Cl)c(F)c2)C1)c1ccc(F)cc1 [Compound 490]
3D7 P. falciparum strain; [1]
  EC50: 50 nM
W2 strain; [2]
  EC50: 33 nM

## CC(C)[C@@H](O)C(=O)N1CCn2c(nc(-c3ccc(F)cc3)c2Nc2ccc(F)c(F)c2)C1 [Compound 430]
3D7 P. falciparum strain; [1]
  EC50: 10 nM
W2 strain; [2]
  EC50: 19 nM

## Cc1ccc(Nc2c(-c3ccc(F)cc3)nc3n2CCN(C(=O)[C@@H](N)CC2CCC2)C3)cc1 [Compound 479]
3D7 P. falciparum strain; [1]
  EC50: 20 nM
W2 strain; [2]
  EC50: 12 nM

## N[C@@H](Cc1ccc(F)cc1)C(=O)N1CCn2c(nc(-c3ccc(F)cc3)c2Nc2ccc(F)c(F)c2)C1 [Compound 443]
3D7 P. falciparum strain; [1]
  EC50: 50 nM
W2 strain; [2]
  EC50: 55 nM

## CC(C)[C@@H]1NC(=O)Cn2c1nc(-c1ccc(F)cc1)c2Nc1ccc(Cl)c(F)c1 [Compound 562]
3D7 P. falciparum strain; [1]
  EC50: 4820 nM
W2 strain; [2]
  EC50: 6290 nM

## Cc1ccc(Nc2c(-c3ccc(F)cc3)nc3n2CCN(C(=O)C(C)(C)N)C3(C)C)cc1 [Compound 529, 2-amino-1-(2-(4-fluorophenyl)-8,8-dimethyl-3-(p-tolylamino)-5,6-dihydroimidazo[1,2-a]pyrazin-7(8H)-yl)-2-methylpropan-1-one]
3D7 P. falciparum strain; [1]
  EC50: 2 nM
W2 strain; [2]
  EC50: 4 nM

## Cc1ccc(Nc2c(-c3ccncc3)nc3n2CCN(C(=O)C(C)(C)N)C3)cc1 [Compound 398]
3D7 P. falciparum strain; [1]
  EC50: 2730 nM
W2 strain; [2]
  EC50: 2680 nM

## N[C@@H](CC1CC1)C(=O)N1CCn2c(nc(-c3ccc(F)cc3)c2Nc2ccc(Cl)c(F)c2)C1 [Compound 488]
3D7 P. falciparum strain; [1]
  EC50: 20 nM
W2 strain; [2]
  EC50: 13 nM

## N[C@@H](CC1CC1)C(=O)N1CCn2c(nc(-c3ccc(F)cc3)c2Nc2ccc(Cl)cc2)C1 [Compound 451]
3D7 P. falciparum strain; [1]
  EC50: 30 nM
W2 strain; [2]
  EC50: 19 nM

## CC(C)(C)[C@H](N)C(=O)N1CCn2c(nc(-c3ccc(F)cc3)c2Nc2ccc(Cl)cc2)C1 [Compound 463]
3D7 P. falciparum strain; [1]
  EC50: 40 nM
W2 strain; [2]
  EC50: 24 nM

## Cc1ccc(Nc2c(-c3ccc(F)cc3)nc3n2CCN(C(=O)[C@H](C)NCc2ccccc2)C3)cc1 [Compound 403]
3D7 P. falciparum strain; [1]
  EC50: 510 nM
W2 strain; [2]
  EC50: 543 nM

## CC1(C)c2nc(-c3ccc(F)cc3)c(Nc3ccc(Cl)c(F)c3)n2CCN1C(=O)CN [Compound 419]
3D7 P. falciparum strain; [1]
  EC50: 30 nM
W2 strain; [2]
  EC50: 24 nM

## CC(C)[C@@H](O)C(=O)N1CCn2c(nc(-c3ccc(F)cc3)c2Nc2ccc(Cl)cc2)C1 [Compound 456]
3D7 P. falciparum strain; [1]
  EC50: 20 nM
W2 strain; [2]
  EC50: 15 nM

## tert-butyl 1-(2-(4-fluorophenyl)-5,6-dihydroimidazo[1,2-a]pyrazin-7(8H)-yl)-2-methyl-1-oxopropan-2-ylcarbamate [Compound 530]
3D7 P. falciparum strain
  EC50: 1230 nM
W2 strain; W2 strain
  EC50: 6420 nM

## CN1CCN(c2ccc(Nc3c(-c4ccc(F)cc4)nc4n3CCN(C(=O)CN)C4(C)C)cc2)CC1 [Compound 571]
3D7 P. falciparum strain; [1]
  EC50: 6200 nM
W2 strain; [2]
  EC50: 7480 nM

## Cc1ccc(C[C@H](N)C(=O)N2CCn3c(nc(-c4ccc(F)cc4)c3Nc3ccc(F)c(F)c3)C2)cc1 [Compound 432]
3D7 P. falciparum strain; [1]
  EC50: 60 nM
W2 strain; [2]
  EC50: 67 nM

## CN1Cc2nc(-c3ccc(F)cc3)c(Nc3ccc(Cl)cc3)n2CC1(C)C [Compound 556, N-(4-chlorophenyl)-2-(4-fluorophenyl)-6,6,7-trimethyl-5,6,7,8-tetrahydroimidazo[1,2-a]pyrazin-3-amine]
3D7 P. falciparum strain; [1]
  EC50: 60 nM
W2 strain; [2]
  EC50: 75 nM

## CC[C@H](C)[C@H](N)C(=O)N1CCn2c(nc(-c3ccc(F)cc3)c2Nc2ccc(Cl)cc2)C1 [Compound 454]
3D7 P. falciparum strain; [1]
  EC50: 20 nM
W2 strain; [2]
  EC50: 8 nM
